Experimental data published in US7407951B2, “Pyrrolobenzodiazepines” (Spirogen Limited, priority 2002, dated 2008).

Key:
Breast MACL MCF7 = experiment: In vitro clonogenic assay (two-layer agar), breast; type: cell-based, human; details: continuous exposure, 8-20 days, colony count
Experimental: (§1) In order to determine the activity of the compounds synthesised, solid human tumour xenografts growing subcutaneously in serial passages in thymus aplastic nude mice (Naval Medical Research Institute, USA nu/nu strain) were removed under sterile condition, mechanically disaggregated and subsequently incubated with an enzyme cocktail consisting of collagenase (41 U/ml, Sigma), DNAse I (125 U/ml, Roche), hyaluronidase (1000 U/ml, Sigma) and dispase II (1.0 U/ml) in RPMI 1640-Medium (Life Technologies) at 37° C. for 30 minutes. Cells were passed through sieves of 200 μm and 50 μm mesh size and washed twice with sterile PBS-buffer. The percentage of viable cells was determined in a Neubauer-hemocytometer using trypan blue exclusion. The cells generated were as follows: • Breast MACL MCF7 • […] • Lung 629L • Melanoma MEXF 462NL
(§2) The clonogenic assay was performed in a 24-well format according to a modified two-layer agar assay introduced by Hamburger, A. W. and Salmon, S. E., Science, 197, […] (1977). The bottom layer consisted of 0.2 ml/well of Iscove's Modified Dulbecco's Medium (supplemented with 20% fetal calf serum and 1% gentamicin) and 0.75% agar. 4×10^4 to 8×10^4 cells were added to 0.2 ml of the same culture medium supplemented with 0.4% agar and plated in 24-multiwell dishes onto the bottom layer. The test compounds were applied by continuous exposure (drug overlay) in 0.2 ml culture medium. Each dish included six control wells containing the vehicle and drug treated groups in triplicate at 6 concentrations. Cultures were incubated at 37° C. and 7.5% CO2 in a humidified atmosphere for 8-20 days and monitored closely for colony growth using an inverted microscope. Within this period, in vitro tumour growth led to the formation of colonies with a diameter of >50 μm. At the time of maximum colony formation, counts were performed with an automatic image analysis system (OMNICOM FAS IV, Biosys GmbH). 24 hours prior to evaluation, vital colnies were stained with a sterile aqueous solution of 2-(4-iodophenyl)-3-(4-nitrophenyl)-5-phenyltetrazolium chloride (1 mg/ml, 100 μl/well).
(§3) The IC50 values of the test compounds were determined by plotting compound concentration versus cell viability.

melanoma cell lines = experiment: NCI hollow fibre assay, melanoma variation; type: in vivo, human; details: 6 cell lines; for IP + SC score: combined score, 10 or more referred for xenograft testing; for IP score: intraperitoneal fibres in mice; for IP score / SC score: drug IP QDx4, 2 doses, 2 points per dose giving 50% or greater reduction in viable cell mass; for SC score: subcutaneous fibres in mice
From the text: (§4) The Biological testing Branch of the Developmental Therapeutics Program of the NCI has adopted a preliminary in vivo screening tool for assessing the potential anticancer activity of compounds identified by the large scale in vitro cell screen. For these assays, human tumour cells are cultivated in polyvinylidene (PVDF) hollow fibres, and a sample of each cell line is implanted into each of two physiologic compartments (intraperitoneal and subcutaneaous) in mice. Each test mouse received a total of 6 fibres (3 intraperitoneally and 3 subcutaneously) representing 3 distinct cancer cell lines. These mice are treated with potential antitumour compounds at each of 2 test doses by the intraperitoneal route using a QD×4 treatment schedule. Vehicle controls consist of 6 mice receiving the compound diluent only. The fibre cultures are collected on the day following the last day of treatment. To assess anticancer effects, the viable cell mass is determined for each of the cell lines using a formazyn dye (MTT) conversion assay. From this, the % T/C can be calculated using the average optical density of compound treated samples divided by the average optical; density of the vehicle controls. In addition, the net increase in cell mass can be determined for each sample, as a sample of fibre cultures are assessed for viable cell mass on the day of implantation into mice. Thus, the cytostatic and cytocidal capacities of the test compound can be assessed.
(§5) Generally, each compound is tested against a minimum of 12 human cancer cell lines. This represents a total of 4 experiments since each experiment contains 3 cell lines. The data are reported as % T/C for each of the 2 compound doses against each of the cell lines with separate values calculated for the intraperitoneal and subcutaneous samples.
(§6) Compounds are selected for further in vivo testing in standard subcutaneous xenograft models on the basis of several hollow fibre assay criteria. These include: (1) a % T/C of 50 or less in 10 of the 48 possible test combinations (12 cell lines×2 sites ×2 compound doses); (2) activity at a distance (intraperitoneal drug/subcutaneous culture) in a minimum of 4 of the 24 possible combinations; and/or (3) a net cell kill of 1 or more of the cell lines in either implant site. To simplify evaluation, a points system has been adopted which allows rapid evaluation of the activity of a given compound. For this, a value of 2 is assigned for each compound dose which results in a 50% or greater reduction in viable cell mass. The intraperitoneal and subcutaneous samples are scored separately so that criteria (1) and (2) can be evaluated. Compounds with a combined IP+SC score of 20, a SC score of 8 or a net cell kill of one or more cell lines are referred for xenograft testing. […] In addition to these criteria, other factors (e.g. unique structure, mechanism of action) may result in referral of a compound for xenograft testing without the compound meeting these criteria.
(§7) Certain compounds of the invention were tested in variations of these assays, to assess their activity against renal and melanoma cell lines. In the melanoma assay, only 6 cell lines are used, and therefore compounds with a combined IP+SC score of 10 or a SC score of 4 are referred for xenograft testing. In the renal assay, only three cell lines are used and therefore compounds with a combined IP+SC score of 5 or a SC score of 2 are referred for xenograft testing.

renal cell lines = experiment: NCI hollow fibre assay, renal variation; type: in vivo, human; details: three cell lines; for IP + SC score: combined score, 5 or more referred for xenograft testing; for IP score: intraperitoneal fibres in mice; for IP score / SC score: drug IP QDx4, 2 doses, 2 points per dose giving 50% or greater reduction in viable cell mass; for SC score: subcutaneous fibres in mice
From the text: as §4, §5, §6, §7

Renal RXF 944L = experiment: In vitro clonogenic assay (two-layer agar), renal; type: cell-based, human; details: continuous exposure, 8-20 days, colony count
Experimental: as §1, §2, §3

Lung 629L = experiment: In vitro clonogenic assay (two-layer agar), lung; type: cell-based, human; details: continuous exposure, 8-20 days, colony count
Experimental: as §1, §2, §3

Melanoma MEXF 462NL = experiment: In vitro clonogenic assay (two-layer agar), melanoma; type: cell-based, human; details: continuous exposure, 8-20 days, colony count
Experimental: as §1, §2, §3

[1] = test system: approximately 60 human tumour cell lines; experiment: NCI in vitro cytotoxicity screen (SRB assay); type: cell-based; details: GI50 in Moles, 48 hour continuous exposure
Experimental: The National Cancer Institute (NCI), Bethesda, Md. USA has available an in vitro cytotoxicity screen which consists of approximately 60 human tumour cell lines against which compounds are tested at a minimum of five concentrations each differing 10-fold. A 48 hour continuous exposure protocol is used, where cell viability or growth is estimated with an SRB protein assay.
The test compounds were evaluated against approximately 60 human tumour cell lines. The NCI screening procedures were described in detail by Monks and co-workers (Monks, A et al., Journal of the National Cancer Institute, 1991, 83, 757). Briefly, cell suspensions were diluted according to the particular cell type and the expected target cell density (5000-40,000 cells per well based on cell growth characteristics), and added by pipette (100 μL) into 96-well microtitre plates. The cells were allowed a preincubation period of 24 hours at 37° C. for stabilisation. Dilutions at twice the intended test concentration were added at time zero in 100 μL aliquots to the wells. The test compounds were evaluated at five 10-fold dilutions (10^−4, 10^−5, 10^−6, 10^−7 and 10^−[…]). The test compounds were incubated for 48 hours in 5% CO2 atmosphere and 100% humidity. The cells were then assayed using the sulphorhodamine B assay. […]

## COc1cc2c(cc1OC)C(=O)N1C=C(c3ccc4ccccc4c3)C[C@H]1C=N2 [Compound 11, (11aS)-1,11a-dihydro-7,8-dimethoxy-2-(2-napthyl)-5H-pyrrolo[2,1-c][1,4]benzodiazepin-5-one]
Breast MACL MCF7; Homo sapiens
  IC50: 0.22 nM

## COc1cc2c(cc1OC)C(=O)N1C=C(c3ccc(C(C)(C)C)cc3)C[C@H]1C=N2 [Compound 13, (11aS)-1,11a-dihydro-7,8-dimethoxy-2-(4-tert-butylbenzene)-5H-pyrrolo[2,1-c][1,4]benzodiazepin-5-one]
Breast MACL MCF7
  IC50: 0.26 nM
Melanoma cell lines
  IP + SC score: 6
  IP score: 2
  SC score: 4
Renal cell lines
  IP + SC score: 6
  IP score: 4
  SC score: 2

## COc1cc2c(cc1OC)C(=O)N1C=C(c3ccc(Cl)cc3)C[C@H]1C=N2 [Compound 15, (11aS)-1,11a-dihydro-7,8-dimethoxy-2-(4-chlorobenzene)-5H-pyrrolo[2,1-c][1,4]benzodiazepin-5-one]
Breast MACL MCF7; Homo sapiens
  IC50: 0.15 nM

## COc1cc2c(cc1OC)C(=O)N1C=C(c3ccc(F)cc3)C[C@H]1C=N2 [Compound 17, (11aS)-1,11a-dihydro-7,8-dimethoxy-2-(4-fluorobenzene)-5H-pyrrolo[2,1-c][1,4]benzodiazepin-5-one]
Renal RXF 944L; Homo sapiens
  IC50: 0.17 nM

## COc1cc2c(cc1OC)C(=O)N1C=C(c3ccccc3C)C[C@H]1C=N2 [Compound 19, (11aS)-1,11a-dihydro-7,8-dimethoxy-2-(2-methylbenzene)-5H-pyrrolo[2,1-c][1,4]benzodiazepin-5-one]
Lung 629L; Homo sapiens
  IC50: 1 nM
Breast MACL MCF7; Homo sapiens
  IC50: 0.35 nM
Melanoma cell lines
  IP + SC score: 8
  IP score: 4
  SC score: 4

## CCc1ccc(C2=CN3C(=O)c4cc(OC)c(OC)cc4N=C[C@@H]3C2)cc1 [Compound 21, (11aS)-1,11a-dihydro-7,8-dimethoxy-2-(4-ethylbenzene)-5H-pyrrolo[2,1-c][1,4]benzodiazepin-5-one]
Lung 629L
  IC50: 0.36 nM
Renal RXF 944L
  IC50: < 0.1 nM
Breast MACL MCF7
  IC50: < 0.1 nM
Melanoma cell lines
  IP + SC score: 10
  IP score: 10
  SC score: 0
Melanoma MEXF 462NL
  IC50: < 0.1 nM

## COc1cc2c(cc1OC)C(=O)N1C=C(c3cccs3)C[C@H]1C=N2 [Compound 23, (11aS)-1,11a-dihydro-7,8-dimethoxy-2-(2-thiophene)-5H-pyrrolo[2,1-c][1,4]benzodiazepin-5-one]
[1]
  MG_MID (average log GI50 across all cell lines tested): −6.34
Breast MACL MCF7; Homo sapiens
  IC50: 0.35 nM

## COc1cc2c(cc1OC)C(=O)N1C=C(c3ccco3)C[C@H]1C=N2 [Compound 25, (11aS)-1,11a-dihydro-7,8-dimethoxy-2-(2-furan)-5H-pyrrolo[2,1-c][1,4]benzodiazepin-5-one]
[1]
  MG_MID (average log GI50 across all cell lines tested): −7.18

## COc1cc2c(cc1OC)C(=O)N1C=C(c3c(C)cccc3C)C[C@H]1C=N2 [Compound 27, (11aS)-1,11a-dihydro-7,8-dimethoxy-2-(2,6-dimethylbenzene)-5H-pyrrolo[2,1-c][1,4]benzodiazepin-5-one]
Renal cell lines
  IP + SC score: 8
  IP score: 4
  SC score: 4

## COc1cc2c(cc1OC)C(=O)N1C=C(c3ccccc3)C[C@H]1C=N2 [Compound C1, reference compound]
Lung 629L; Homo sapiens
  IC50: 44.5 nM
Renal RXF 944L; Homo sapiens
  IC50: 20.5 nM
Breast MACL MCF7; Homo sapiens
  IC50: 19.3 nM
Melanoma cell lines
  IP + SC score: 4
  IP score: 4
  SC score: 0
Renal cell lines
  IP + SC score: 0
  IP score: 0
  SC score: 0
Melanoma MEXF 462NL; Homo sapiens
  IC50: 40 nM

## COc1ccc(C2=CN3C(=O)c4cc(OC)c(OC)cc4N=C[C@@H]3C2)cc1 [Compound C2]
Lung 629L; Homo sapiens
  IC50: 5 nM
Renal RXF 944L; Homo sapiens
  IC50: 1.5 nM
Breast MACL MCF7; Homo sapiens
  IC50: 1.96 nM
Melanoma MEXF 462NL; Homo sapiens
  IC50: 2.85 nM

## COc1cc2c(cc1OC)C(=O)N1C=C(c3ccc(C)cc3)C[C@H]1C=N2 [Compound C3, reference compound]
Lung 629L; Homo sapiens
  IC50: 8 nM
Renal RXF 944L; Homo sapiens
  IC50: 0.89 nM
Breast MACL MCF7; Homo sapiens
  IC50: 1.59 nM
Melanoma cell lines
  IP + SC score: 2
  IP score: 0
  SC score: 2
Renal cell lines
  IP + SC score: 2
  IP score: 2
  SC score: 0
Melanoma MEXF 462NL; Homo sapiens
  IC50: 2 nM
